Values of other authors as cited in publication PMC8955938, “c-Myc Protein Level Affected by Unsymmetrical Bisacridines Influences Apoptosis and Senescence Induced in HCT116 Colorectal and H460 Lung Cancer Cells” (International Journal of Molecular Sciences, 2022).

Design: method as in PMID 26485768, PMID 17009029, PMID 21805041, PMID 30894570
Conditions: established in similar conditions; irinotecan colon cancer treatment, cisplatin lung cancer treatment; cited from earlier work

| SMILES | IC50 [µM] |
| --- | --- |
| N.N.[Cl][Pt][Cl] [cisplatin] | ~5 |
| CCc1c2c(nc3ccc(OC(=O)N4CCC(N5CCCCC5)CC4)cc13)-c1cc3c(c(=O)n1C2)COC(=O)[C@]3(O)CC [irinotecan] | ~5 |
